Test results reported in EP0051819A2, “Tetra-substituted benzene derivatives, their preparation and pharmaceutical preparations containing them” (F. HOFFMANN-LA ROCHE & CO. Aktiengesellschaft, priority 1980, dated 1982).
Converted amounts (≈) assume the structure as drawn. Read-outs that look alike come from different tables or passages of the source. Values belong to the compound of their own block, whether it stands above or below them.

Key:
Format in all cases: cell-based
HeLa-Zellen = assay: Cytotoxicity in HeLa cells, observed microscopically in the antiviral test; details: minimal concentration at which toxic symptoms were observed (cytotoxische Dosis); 2 days at 33°C
Experimental: (§1) Eine Suspension von HeLa-Zellen (6 x 10^4) wurde mit Rhinovirus HGP (3 x 10^3 Plaque-bildende Einheiten, PFU) gemischt und auf eine Mikrotestplatte gebracht, die die zu testenden Verbindungen in zunehmender Verdünnung enthielten. Die Zellen wurden dann in Eagle's Minimalnährlösung, die 2% Kalbsserum, 1% Tryptosephosphatbrühe, 100 ug/ml Streptomycin und 20 Einheiten/ml Penicillin G enthielt, kultiviert. Der virale zytopathogenische Effekt (C.P.E.) und die Cytotoxizität wurden mikroskopisch nach 2 Tagen Kultivierung bei 33°C beobachtet. Die antivirale Aktivität (IC50) der Testverbindungen ist diejenige Konzentration,.bei der C.P.E. um 50% gegenüber der Kontrollkultur gehemmt war. Die Cytotoxizität ist als Minimalkonzentration angegeben, bei der toxische Symptome beobachtet wurden.(cytotoxische Dosis).

Rhinovirus HGP = assay: Antiviral activity: inhibition of viral cytopathogenic effect (C.P.E.) in HeLa cell culture; details: for IC50: Enterovirus, HeLa, 48 h; for antivirale Aktivität: qualitative statement in the description, no virus named
Experimental: as §1

[1] = Cytotoxicity in HeLa cells, observed microscopically in the antiviral test; details: human, hela cells; minimal concentration at which toxic symptoms were observed (cytotoxische Dosis); 2 days at 33°C; read-out: Cytotoxizität
Experimental: as §1

[2] = Cytotoxic dose inhibiting HeLa cell growth; details: human, hela cells; footnote of Tabelle 2; read-out: cytotoxischen Dosen, die HeLa-Zellwachstum hemmen
Rhinovirus 9 = assay: Antiviral spectrum against rhinovirus serotypes (C.P.E. inhibition); details: Enterovirus; virus strain Rhinovirus 9
Experimental: as §1
(§2) Weiterhin sind die antiviralen Spektren von 1-(4-Ethoxy-2-hydroxy-6-methoxyphenyl)-3-(4-methoxyphenyl)-1-propanon (Verbindung A) und 4-Ethoxy-2-hydroxy-6-methoxy-N-(p-methoxybenzyl)benzamid (Verbindung B) gegen verschiedene Serotypen von Rhinoviren in Tabelle 2. angegeben.

Rhinovirus 39 = assay: as above; details: Enterovirus; virus strain Rhinovirus 39
Experimental: as §1, §2

Rhinovirus 21 = assay: as above; details: Enterovirus; virus strain Rhinovirus 21
Experimental: as §1, §2

Rhinovirus 1A = assay: as above; details: Enterovirus; virus strain Rhinovirus 1A
Experimental: as §1, §2

Rhinovirus 55 = assay: as above; details: Enterovirus; virus strain Rhinovirus 55
Experimental: as §1, §2

Rhinovirus 2 = assay: as above; details: Enterovirus; virus strain Rhinovirus 2
Experimental: as §1, §2

Rhinovirus 16 = assay: as above; details: Enterovirus; virus strain Rhinovirus 16
Experimental: as §1, §2

Rhinovirus 1B = assay: as above; details: Enterovirus; virus strain Rhinovirus 1B
Experimental: as §1, §2

Rhinovirus 36 = assay: as above; details: Enterovirus; virus strain Rhinovirus 36
Experimental: as §1, §2

Rhinovirus 44 = assay: as above; details: Enterovirus; virus strain Rhinovirus 44
Experimental: as §1, §2

Rhinovirus 14 = assay: as above; details: Enterovirus; virus strain Rhinovirus 14
Experimental: as §1, §2

Rhinovirus 47 = assay: as above; details: Enterovirus; virus strain Rhinovirus 47
Experimental: as §1, §2

Rhinovirus 32 = assay: as above; details: Enterovirus; virus strain Rhinovirus 32
Experimental: as §1, §2

Rhinovirus 30 = assay: as above; details: Enterovirus; virus strain Rhinovirus 30
Experimental: as §1, §2

Rhinovirus 31 = assay: as above; details: Enterovirus; virus strain Rhinovirus 31
Experimental: as §1, §2

Rhinovirus 50 = assay: as above; details: Enterovirus; virus strain Rhinovirus 50
Experimental: as §1, §2

Rhinovirus 24 = assay: as above; details: Enterovirus; virus strain Rhinovirus 24
Experimental: as §1, §2

Rhinovirus 46 = assay: as above; details: Enterovirus; virus strain Rhinovirus 46
Experimental: as §1, §2

Rhinovirus 25 = assay: as above; details: Enterovirus; virus strain Rhinovirus 25
Experimental: as §1, §2

Rhinovirus 23 = assay: as above; details: Enterovirus; virus strain Rhinovirus 23
Experimental: as §1, §2

[3] = concentration inhibiting C.P.E. by 50% versus control culture, HeLa cells, 2 days at 33°C, read-out: IC50

SMILES: CCOc1cc(OC)c(C(=O)NCc2ccc(OC)cc2)c(OP(=O)([O-])[O-])c1.[Na+].[Na+] [Dinatrium 2-[(p-Anisylamino)carbonyl]-5-ethoxy-3-methoxyphenyl-phosphat]
Cytotoxizität (HeLa-Zellen): >8 µg/mL | IC50 (Rhinovirus HGP): 0.01 to 0.03 µg/mL | antivirale Aktivität (Rhinovirus HGP): besonders starke antivirale Aktivität

SMILES: COc1cccc(CNC(=O)c2c(O)cc(OC)cc2OC)c1 [2-Hydroxy-4,6-dimethoxy-N-(m--methoxybenzyl)benzamid]
MCC at 48 h [1]: > 8 µg/mL | IC50 (Rhinovirus HGP; [3]): 0.002 µg/mL (≈ 0.0063 µM)

SMILES: COc1cc(O)c(C(=O)CCc2ccc(C)cc2)c(OC)c1 [1-(2-Hydroxy-4,6-dimethoxy-phenyl)-3-(4-methylphenyl)-1--propanon]
MCC at 48 h [1]: > 8 µg/mL | IC50 (Rhinovirus HGP; [3]): 0.01 to 0.03 µg/mL (≈ 0.0333 to 0.0999 µM)

SMILES: CCOC(=O)Oc1cc(OC)cc(OC)c1C(=O)NCc1ccc(OC)cc1
MCC at 48 h [1]: > 8 µg/mL | IC50 (Rhinovirus HGP; [3]): 0.1 µg/mL (≈ 0.257 µM)

SMILES: COc1cc(O)c(C(=O)CCC2CCC(C)O2)c(OC)c1 (stereo not drawn) [1-(2-Hydroxy-4,6-dimethoxyphenyl)-3-(tetrahydro-5-methyl-2-furyl)-1-propanon]
MCC at 48 h [1]: > 8 µg/mL | IC50 (Rhinovirus HGP; [3]): 0.9 µg/mL (≈ 3.06 µM)

SMILES: CCOc1cc(OC)c(C(=O)CCc2ccc(OC)cc2)c(OP(=O)([O-])[O-])c1.[Na+].[Na+] [Dinatrium 5-ethoxy-3-methoxy-2-[3-(4-methoxyphenyl)-propionyl]phenylphosphat]
Cytotoxizität (HeLa-Zellen): >10 µg/mL | IC50 (Rhinovirus HGP): 0.03 to 0.1 µg/mL

SMILES: COc1cc(O)c(C(=O)CCc2ccc3c(c2)OCO3)c(OC)c1 [1-(2-Hydroxy-4,6-dimethoxy-phenyl)-3-[3,4-(methylendioxy)-phenyl]-1-propanon]
MCC at 48 h [1]: > 8 µg/mL | IC50 (Rhinovirus HGP; [3]): 0.03 to 0.1 µg/mL (≈ 0.0908 to 0.303 µM)

SMILES: CCOc1cc(O)c(C(=O)NCc2ccc(OC)cc2)c(OC)c1 [4-Ethoxy-2-hydroxy-6-methoxy-N-(p-methoxybenzyl)benzamid]
MCC [2]: 40 µg/mL | MCC at 48 h [1]: > 10 µg/mL | IC50 (Rhinovirus HGP; [3]): 0.002 µg/mL (≈ 0.00604 µM) | antivirale Aktivität (Rhinovirus HGP): besonders starke antivirale Aktivität | IC50 (Rhinovirus 9): 3 ng/mL (≈ 0.00905 µM) | IC50 (Rhinovirus 39): 3 ng/mL (≈ 0.00905 µM) | IC50 (Rhinovirus 21): < 1 ng/mL | IC50 (Rhinovirus 1A): 0.009 to 0.027 µg/mL (≈ 0.0272 to 0.0815 µM) | IC50 (Rhinovirus 55): 9 ng/mL (≈ 0.0272 µM) | IC50 (Rhinovirus 2): 1 ng/mL (≈ 0.00302 µM) | IC50 (Rhinovirus 16): 3 ng/mL (≈ 0.00905 µM) | IC50 (Rhinovirus 1B): 0.003 to 0.009 µg/mL (≈ 0.00905 to 0.0272 µM) | IC50 (Rhinovirus 36): 0.009 to 0.027 µg/mL (≈ 0.0272 to 0.0815 µM) | IC50 (Rhinovirus 44): 3 ng/mL (≈ 0.00905 µM) | IC50 (Rhinovirus 14): 0.009 to 0.027 µg/mL (≈ 0.0272 to 0.0815 µM) | IC50 (Rhinovirus 47): 3 ng/mL (≈ 0.00905 µM) | IC50 (Rhinovirus 32): 3 to 9 ng/mL (≈ 0.00905 to 0.0272 µM) | IC50 (Rhinovirus 30): 1 to 3 ng/mL (≈ 0.00302 to 0.00905 µM) | IC50 (Rhinovirus 31): 0.081 to 0.24 µg/mL (≈ 0.244 to 0.724 µM) | IC50 (Rhinovirus 50): 0.01 µg/mL (≈ 0.0302 µM)

SMILES: CCOc1cc(O)c(C(=O)CCc2ccc(OC)cc2)c(OC)c1 [1-(4-Ethoxy-2-hydroxy-6-methoxyphenyl)-3-(4-methoxyphenyl)-1-propanon]
MCC [2]: 60 µg/mL | MCC at 48 h [1]: > 8 µg/mL | IC50 (Rhinovirus HGP; [3]): 0.002 µg/mL (≈ 0.00605 µM) | antivirale Aktivität (Rhinovirus HGP): besonders starke antivirale Aktivität | IC50 (Rhinovirus 9): 12 to 37 ng/mL (≈ 0.0363 to 0.112 µM) | IC50 (Rhinovirus 39): 12 to 37 ng/mL (≈ 0.0363 to 0.112 µM) | IC50 (Rhinovirus 21): < 1 ng/mL | IC50 (Rhinovirus 1A): 0.03 to 0.09 µg/mL (≈ 0.0908 to 0.272 µM) | IC50 (Rhinovirus 2): 1 ng/mL (≈ 0.00303 µM) | IC50 (Rhinovirus 24): 0.01 to 0.03 µg/mL (≈ 0.0303 to 0.0908 µM) | IC50 (Rhinovirus 46): 0.037 to 0.11 µg/mL (≈ 0.112 to 0.333 µM) | IC50 (Rhinovirus 1B): 0.03 to 0.09 µg/mL (≈ 0.0908 to 0.272 µM) | IC50 (Rhinovirus 25): 0.01 to 0.09 µg/mL (≈ 0.0303 to 0.272 µM) | IC50 (Rhinovirus 14): 0.1 to 0.3 µg/mL (≈ 0.303 to 0.908 µM) | IC50 (Rhinovirus 23): 4 ng/mL (≈ 0.0121 µM) | IC50 (Rhinovirus 31): 0.03 to 0.09 µg/mL (≈ 0.0908 to 0.272 µM) | IC50 (Rhinovirus 50): 0.004 to 0.012 µg/mL (≈ 0.0121 to 0.0363 µM)

The next lines start with results.

IC50 (Rhinovirus HGP; [3]): 0.9 µg/mL (≈ 4.26 µM)
SMILES: CNC(=O)c1c(O)cc(OC)cc1OC [2-Hydroxy-4,6-dimethoxy-N--methylbenzamid]
MCC at 48 h [1]: > 8 µg/mL

IC50 (Rhinovirus HGP; [3]): 0.002 µg/mL (≈ 0.0063 µM)
SMILES: COc1ccc(CNC(=O)c2c(O)cc(OC)cc2OC)cc1 [2-Hydroxy-4,6-dimethoxy-N-(p-methoxybenzyl)benzamid]
MCC at 48 h [1]: 8 µg/mL

IC50 (Rhinovirus HGP; [3]): 0.03 to 0.1 µg/mL (≈ 0.104 to 0.348 µM)
SMILES: COc1cc(O)c(C(=O)NCc2ccccc2)c(OC)c1 [N-Benzyl-2-hydroxy-4,6-dimethoxy-benzamid]
MCC at 48 h [1]: > 8 µg/mL

IC50 (Rhinovirus HGP; [3]): 0.3 µg/mL (≈ 0.803 µM)
SMILES: CCOc1cc(OC)c(C(=O)NCc2ccc(OC)cc2)c(OC(C)=O)c1 [2-[(p-Anisyl-amino)carbonyl]-5-ethoxy-3-methoxypheny]acetat]
MCC at 48 h [1]: > 8 µg/mL

IC50 (Rhinovirus HGP; [3]): 0.002 µg/mL (≈ 0.006 µM)
SMILES: COc1cc(O)c(C(=O)NCc2ccc(SC)cc2)c(OC)c1 [2-Hydroxy-4,6-dimethoxy-N-[p--(methylthio)benzyl]benzamid]
MCC at 48 h [1]: > 8 µg/mL | antivirale Aktivität (Rhinovirus HGP): besonders starke antivirale Aktivität

IC50 (Rhinovirus HGP; [3]): 0.001 to 0.003 µg/mL (≈ 0.0029 to 0.00869 µM)
SMILES: CCCOc1cc(O)c(C(=O)NCc2ccc(OC)cc2)c(OC)c1 [2-Hydroxy-6-methoxy-4-propoxy-N-(p-methoxybenzyl)benzamid]
MCC at 48 h [1]: > 20 µg/mL | antivirale Aktivität (Rhinovirus HGP): besonders starke antivirale Aktivität

IC50 (Rhinovirus HGP; [3]): 0.03 µg/mL (≈ 0.0712 µM)
SMILES: COc1ccc(CNC(=O)c2c(OC)cc(OC)cc2OC(=O)c2ccccc2)cc1 [2-[(p-Anisylamino)carbonyl]-3,5-dimethoxyphenyl-benzoat]
MCC at 48 h [1]: > 8 µg/mL

IC50 (Rhinovirus HGP; [3]): 0.3 to 0.9 µg/mL (≈ 0.763 to 2.29 µM)
SMILES: COc1cc(O)c(C(=O)NCc2ccc(OCc3ccccc3)cc2)c(OC)c1 [N-[p-(Benzyloxy)benzyl]-2--hydroxy-4,6-dimethoxybenzamid]
MCC at 48 h [1]: > 8 µg/mL

IC50 (Rhinovirus HGP; [3]): 0.1 to 0.3 µg/mL (≈ 0.3 to 0.9 µM)
SMILES: COc1cc(O)c(C(=O)NCc2ccc(OC)c(O)c2)c(OC)c1 [2-Hydroxy-N-(m-hydroxy-p-methoxy-benzyl)-4,6-dimethoxybenzamid]
MCC at 48 h [1]: 2.7 µg/mL
